Test results: US10287267B2, “Isoquinolin-3-yl carboxamides and preparation and use thereof” (Samumed, LLC, priority 2016, dated 2019)
Read-outs that look alike come from different tables or passages of the source.

Key:
[1] = system: IL-6; experiment: IL-6 inhibition in LPS-stimulated human peripheral blood mononuclear cells (HTRF); assay type: cell-based; conditions: Homo sapiens, PBMC; for EC50: Table 9, huPBMCs, LPS 50 ng/mL, 22 hours, dose-response starting from 10 μM; for inhibition at 10 µM: read-out: percent value in parentheses beside EC50 >10 μM;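 as to all read-outs here: IL-6 detected by HTRF with an XL665- and Cryptate-labelled anti-IL-6 antibody pair, samples run in duplicate, EC50 obtained from a four-parameter Levenberg-Marquardt curve fit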
Procedure: After 22 hour incubation, a mixture of anti-IL6 XL665 and anti-IL-6 Cryptate diluted in reconstitution buffer (Catalog #62IL6PEC, Cisbio Inc., Bedford, Mass.) was added to each well. […] All samples were processed in duplicate. […] EC50 was determined using software generated by Dotmatics Limited (Windhill Bishops Stortford Herts, UK) using the Levenberg-Marquardt 4 parameter fitting procedure with finite different gradients.

[2] = system: SW480 colon carcinoma cells; experiment: Cell viability assay (CellTiter-Glo); assay type: cell-based, human; conditions: Homo sapiens; for EC50: 96 h, SW480 cells, CellTiter-Glo, four days incubation; for inhibition at 10 µM: SW480, read-out: percent inhibition at 10 μM
[3] = system: Tau phosphorylation at Ser396 (pSer396); experiment: Tau phosphorylation assay (pSer396 ELISA / western blot) in SH-SY5Y cells; assay type: cell-based, human; conditions: Homo sapiens, read-out: pSer396 Tau EC50;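 also: EC50 for reduction of Tau pSer396 in lysed cells, measured by colorimetric ELISA or chemiluminescent western blot, both using the same pSer396 antibody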
[4] = biological target: recombinant GSK3β kinase (Homo sapiens (Human), UniProt P49841); experiment: GSK3β kinase assay (Ser/Thr 09 peptide Z-lyte FRET); assay type: biochemical; conditions: 46 μM ATP, 1 h room temperature;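 also: kinase activity read as coumarin to fluorescein emission ratio, 11-point threefold dilutions from 10 µM to 0.0003 µM in duplicate, unphosphorylated and phosphorylated peptide as 0% and 100% controls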
recombinant GSK3β kinase, sequence (P49841 whole entry): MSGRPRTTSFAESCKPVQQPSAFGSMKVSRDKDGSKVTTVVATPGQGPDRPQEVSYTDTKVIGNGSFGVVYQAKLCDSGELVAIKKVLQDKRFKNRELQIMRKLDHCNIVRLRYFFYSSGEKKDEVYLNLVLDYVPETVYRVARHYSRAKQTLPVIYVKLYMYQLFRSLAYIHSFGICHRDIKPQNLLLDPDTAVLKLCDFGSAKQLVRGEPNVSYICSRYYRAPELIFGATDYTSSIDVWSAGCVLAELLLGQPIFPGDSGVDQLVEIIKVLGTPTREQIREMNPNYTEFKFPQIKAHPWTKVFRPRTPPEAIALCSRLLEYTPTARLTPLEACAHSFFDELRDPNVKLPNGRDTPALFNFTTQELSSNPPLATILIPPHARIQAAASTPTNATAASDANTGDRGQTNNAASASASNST

[5] = biological target: recombinant DYRK1A kinase (Homo sapiens (Human), UniProt Q13627); experiment: DYRK1A kinase assay (Ser/Thr 18 peptide Z-lyte FRET); assay type: biochemical; conditions: 30 μM ATP, 1 h room temperature;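 also: Read-out is the coumarin to fluorescein emission ratio, referenced to unphosphorylated (0%) and phosphorylated (100%) Ser/Thr 18 peptide controls, values from dose-response curves by non-linear regression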
[6] = system: Wnt pathway (Sp5-Luc reporter, TCF/LEF binding sites) in SW480 colon carcinoma cells; experiment: Screening assay for Wnt activity: Sp5-Luc reporter gene assay; assay type: cell-based, human; conditions: Homo sapiens; Sp5-Luc reporter, SW480 cells, 36 to 48 hours;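 also: firefly luciferase luminescence read in stably transduced SW480 cells carrying the Sp5 promoter reporter with eight TCF/LEF sites, compounds given in 0.1% DMSO final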
Procedure: The screening assay for Wnt activity is described as follows.
Following incubation, 15 μl of BriteLite Plus luminescence reagent (Perkin Elmer) was added to each well of the 384-well assay plates. The plates were placed on an orbital shaker for 2 min and then luminescence was quantified using the Envision (Perkin Elmer) plate reader.

[7] = SH-SY5Y cells, overnight (16-18 h) exposure

Row | Structure (SMILES) | EC50 [1] | EC50 [2] | EC50 [3, 7] | EC50 [4] | EC50 [5] | EC50 [6] | inhibition at 10 µM [2] | inhibition at 10 µM [1] | EC50 ([3]; SH-SY5Y)
1 | Cn1cc(-c2ccc3cnc(NC(=O)CN4CCC(O)CC4)cc3c2)cn1 [Compound 1078, 2-(4-Hydroxypiperidin-1-yl)-N-(6-(1-methyl-1H-pyrazol-4-yl)isoquinolin-3-yl)acetamide] | 3240 nM | 4410 nM | 458 nM | 70 nM | 6 nM | 4030 nM | – | – | –
2 | Cc1ncc(-c2ccc3cnc(NC(=O)CCN4CCOCC4)cc3c2)o1 [Compound 1068, N-(6-(2-Methyloxazol-5-yl)isoquinolin-3-yl)-3-morpholinopropanamide] | 3400 nM | > 10000 nM | 689 nM | 36 nM | 5.3 nM | 3720 nM | 46% | – | –
3 | COC1CCN(CC(=O)Nc2cc3cc(-c4cnn(C)c4)ccc3cn2)CC1 [Compound 1077, 2-(4-Methoxypiperidin-1-yl)-N-(6-(1-methyl-1H-pyrazol-4-yl)isoquinolin-3-yl)acetamide] | 3170 nM | 5250 nM | 425 nM | 32 nM | 4.5 nM | 5190 nM | – | – | –
4 | CN1CCN(CC23CC(C(=O)Nc4cc5cc(-c6cnn(C)c6)ccc5cn4)(C2)C3)CC1 [Compound 1088, N-(6-(1-Methyl-1H-pyrazol-4-yl)isoquinolin-3-yl)-3-((4-methylpiperazin-1-yl)methyl)bicyclo[1.1.1]pentane-1-carboxamide] | 5980 nM | 9190 nM | 8600 nM | 937 nM | 9.3 nM | 7400 nM | – | – | –
5 | Cc1nnc(-c2ccc3cnc(NC(=O)CN4C5CCC4CC5)cc3c2)s1 [Compound 959, 2-(7-Azabicyclo[2.2.1]heptan-7-yl)-N-(6-(5-methyl-1,3,4-thiadiazol-2-yl)isoquinolin-3-yl)acetamide] | > 10000 nM | > 10000 nM | – | 45 nM | 15.4 nM | 4240 nM | 45% | 6.1% | 443 nM
6 | CN1CCC(C(=O)Nc2cc3cc(-c4cnn(C)c4)c(Cl)cc3cn2)CC1 [Compound 1027, N-(7-Chloro-6-(1-methyl-1H-pyrazol-4-yl)isoquinolin-3-yl)-1-methylpiperidine-4-carboxamide] | > 10000 nM | 488 nM | 2200 nM | 3070 nM | 50 nM | 875 nM | – | 0% | –
7 | Cc1nnc(-c2ccc3cnc(NC(=O)[C@H]4CC[C@H](CO)CC4)cc3c2)s1 [Compound 888, trans-4-(Hydroxymethyl)-N-(6-(5-methyl-1,3,4-thiadiazol-2-yl)isoquinolin-3-yl)cyclohexane-1-carboxamide] | 3940 nM | 2470 nM | 195 nM | 8 nM | 1.4 nM | 1040 nM | – | – | –
8 | Cn1ncc(-c2ccc3cnc(NC(=O)C4CCOCC4)cc3c2)c1CN1CCCCC1 [Compound 839, N-(6-(1-Methyl-5-(piperidin-1-ylmethyl)-1H-pyrazol-4-yl)isoquinolin-3-yl) tetrahydro-2H-pyran-4-carboxamide] | 3280 nM | 1180 nM | 254 nM | 17 nM | 3.8 nM | 776 nM | – | – | –
9 | CN(C)C1CCC(C(=O)Nc2cc3cc(-c4cnn(C)c4)ccc3cn2)CC1 (stereo in doubt) [Compound 1081, trans-4-(Dimethylamino)-N-(6-(1-methyl-1H-pyrazol-4-yl)isoquinolin-3-yl)cyclohexane-1-carboxamide] | 1100 nM | 4650 nM | 470 nM | 82 nM | 2.2 nM | 2730 nM | – | – | –
10 | CN1CCC(N(C)C(=O)Nc2cc3cc(-c4cnn(C)c4)ccc3cn2)CC1 [Compound 1037, 1-methyl-3-(6-(1-methyl-1H-pyrazol-4-yl)isoquinolin-3-yl)-1-(1-methylpiperidin-4-yl)urea] | 7520 nM | > 10000 nM | > 10000 nM | 1920 nM | 10.2 nM | 3640 nM | 32.7% | – | –
11 | CN1CCCC(C(=O)Nc2cc3cc(-c4cnn(C)c4)ccc3cn2)CC1 (centres unmarked) [Compound 1080, 1-Methyl-N-(6-(1-methyl-1H-pyrazol-4-yl)isoquinolin-3-yl)azepane-4-carboxamide] | 1070 nM | 1380 nM | 251 nM | 56 nM | 3.2 nM | 1220 nM | – | – | –
